In patent publication US20240217968A1, “PHARMACEUTICAL COMPOUND” (DUKE STREET BIO LIMITED, priority 2021, published 2024):

Biological target: T1, recombinant human Flag-tagged PARP7 (amino acids 456-657) (Homo sapiens, UniProt Q7Z3E1)
T1 construct: recombinant human Flag-tagged PARP7 (amino acids 456-657)
T1 sequence (Q7Z3E1 456-657): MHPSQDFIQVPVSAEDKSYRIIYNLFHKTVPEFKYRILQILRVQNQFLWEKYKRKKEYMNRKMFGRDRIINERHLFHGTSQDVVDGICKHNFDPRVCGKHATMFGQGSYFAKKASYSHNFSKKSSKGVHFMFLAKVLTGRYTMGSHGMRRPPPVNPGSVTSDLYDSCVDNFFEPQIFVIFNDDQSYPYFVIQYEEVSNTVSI
Experiment: PARP7 biochemical DELFIA assay (auto-MARylation)
Conditions: DELFIA readout, IC50 class
Procedure, shortened: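 Flag-PARP7 (456-657), 12.5-37.5 nM stock, captured on anti-FLAG wells, preincubated 30 min with compound, then auto-MARylated with biotin-NAD+ (15 μM stock) in HEPES pH 7.5/NaCl/DTT/BSA/Tween for 2-3 h at room temperature. NAD+ quench; Eu-streptavidin DELFIA read, Ex337/Em620 nm.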

SMILES	IC50 [nM]
N#Cc1ccc(N2CCN(C(=O)c3cccc(Cc4cccc5c(=O)[nH]ncc45)c3)CC2)nc1 [Compound 1, 6-(4-(3-((1-oxo-1,2-dihydrophthalazin-5-yl)methyl)benzoyl)piperazin-1-yl)nicotinonitrile]	≤ 100
O=C(c1cccc(Cc2cccc3c(=O)[nH]ncc23)c1)N1CCN(C(=O)C2CC2)CC1 [Compound 2]	1000 to 10000
O=C(COCCOc1cccc2c(=O)[nH]ncc12)N1CCN(c2ncc(C(F)(F)F)cn2)CC1 [Compound 3]	100 to 1000
O=C(CCOCCc1cccc2c(=O)[nH]ncc12)N1CCN(c2ncc(C(F)(F)F)cn2)CC1 [Compound 4]	≤ 100
N#Cc1ccc(N2CCN(C(=O)c3cccc(CN4CCc5c4cn[nH]c5=O)c3)CC2)nc1 [Compound 5]	1000 to 10000
O=C(CCOCCN1CCc2c1cn[nH]c2=O)N1CCN(c2ncc(C(F)(F)F)cn2)CC1 [Compound 6]	100 to 1000
N#Cc1ccc(N2CCN(C(=O)c3cccc(CN4CCCc5c4cn[nH]c5=O)c3)CC2)nc1 [Compound 7]	100 to 1000
O=C(CCOCCN1CCCc2c1cn[nH]c2=O)N1CCN(c2ncc(C(F)(F)F)cn2)CC1 [Compound 8]	≤ 100
N#Cc1ccc(N2CCN(C(=O)c3cccc(Cn4ccc5c(=O)[nH]ncc54)c3)CC2)nc1 [Compound 9]	100 to 1000
O=C(CCOCCn1ccc2c(=O)[nH]ncc21)N1CCN(c2ncc(C(F)(F)F)cn2)CC1 [Compound 10, 1-(2-(3-oxo-3-(4-(5-(trifluoromethyl)pyrimidin-2-yl)piperazin-1-yl)propoxy)ethyl)-1,5-dihydro-4H-pyrrolo[2,3-d]pyridazin-4-one]	≤ 100
N#Cc1ccc(N2CCN(C(=O)c3cccc(CN4CCOc5c4cn[nH]c5=O)c3)CC2)nc1 [Compound 11]	1000 to 10000
O=C(CCOCCN1CCOc2c1cn[nH]c2=O)N1CCN(c2ncc(C(F)(F)F)cn2)CC1 [Compound 12]	100 to 1000
O=C(COCCOc1cccc2c(=O)[nH]cnc12)N1CCN(c2ncc(C(F)(F)F)cn2)CC1 [Compound 15]	100 to 1000
O=C(CCOCCc1cccc2c(=O)[nH]cnc12)N1CCN(c2ncc(C(F)(F)F)cn2)CC1 [Compound 16]	100 to 1000
O=C(COCCNc1cccc2c(=O)[nH]cnc12)N1CCN(c2ncc(C(F)(F)F)cn2)CC1 [Compound 17]	1000 to 10000
N#Cc1ccc(N2CCN(C(=O)c3cccc(Cc4cccc5c(=O)[nH]c(=O)[nH]c45)c3)CC2)nc1 [Compound 18]	100 to 1000
O=C(c1cccc(Cc2cccc3c(=O)[nH]c(=O)[nH]c23)c1)N1CCN(C(=O)C2CC2)CC1 [Compound 19]	1000 to 10000
N#Cc1ccc(N2CCN(C(=O)c3cccc(Cc4cccc5c4CCNC5=O)c3)CC2)nc1 [Compound 20]	100 to 1000
O=C1NCCc2c(Cc3cccc(C(=O)N4CCN(C(=O)C5CC5)CC4)c3)cccc21 [Compound 21]	1000 to 10000
O=C1NCCc2c(OCCOCC(=O)N3CCN(c4ncc(C(F)(F)F)cn4)CC3)cccc21 [Compound 22]	1000 to 10000

SMILES	IC50 [nM]
O=C1NCCc2c(CCOCCC(=O)N3CCN(c4ncc(C(F)(F)F)cn4)CC3)cccc21 [Compound 23]	100 to 1000
N#Cc1ccc(N2CCN(C(=O)c3cccc(Cn4ncc5c(=O)[nH]ncc54)c3)CC2)nc1 [Compound 24]	100 to 1000
O=C(c1cccc(Cc2cccc3c(=O)[nH]ncc23)c1)N1CCN(c2ncc(C(F)(F)F)cn2)CC1 [Compound 25]	≤ 100
N#Cc1ccc(N2CCN(C(=O)c3cccc(Cc4cccc5c(=O)[nH]ncc45)c3)CC2)cc1 [Compound 26]	1000 to 10000
O=C(c1cccc(Cc2cccc3c(=O)[nH]ncc23)c1)N1CCN(c2ccccc2)CC1 [Compound 27]	1000 to 10000
N#Cc1ccc(N2CCCN(C(=O)c3cccc(Cc4cccc5c(=O)[nH]ncc45)c3)CC2)nc1 [Compound 28]	100 to 1000
N#Cc1ccc(N2CCN(C(=O)c3cccc(Oc4cccc5c(=O)[nH]ncc45)c3)CC2)nc1 [Compound 29]	100 to 1000
N#Cc1ccc(N2CCN(C(=O)c3cccc(Nc4cccc5c(=O)[nH]ncc45)c3)CC2)nc1 [Compound 30]	≤ 100
N#Cc1ccc(N2CCN(C(=O)c3ccc(Cc4cccc5c(=O)[nH]ncc45)cc3)CC2)nc1 [Compound 32]	1000 to 10000
CC(C)(COCC(=O)N1CCN(c2ncc(C(F)(F)F)cn2)CC1)Oc1cccc2c(=O)[nH]ncc12 [Compound 34]	1000 to 10000
O=C(CCCCOc1cccc2c(=O)[nH]ncc12)N1CCN(c2ncc(C(F)(F)F)cn2)CC1 [Compound 35]	100 to 1000
O=C(NCCCOc1cccc2c(=O)[nH]ncc12)N1CCN(c2ncc(C(F)(F)F)cn2)CC1 [Compound 36]	1000 to 10000
O=C(CCCOc1cccc2c(=O)[nH]ncc12)N1CCN(c2ncc(C(F)(F)F)cn2)CC1 [Compound 37]	1000 to 10000
N#Cc1ccc(N2CCN(C(=O)Cc3cccc(Cc4cccc5c(=O)[nH]ncc45)c3)CC2)nc1 [Compound 38]	1000 to 10000
N#Cc1ccc(N2CCN(S(=O)(=O)c3cccc(Cc4cccc5c(=O)[nH]ncc45)c3)CC2)nc1 [Compound 39]	1000 to 10000
N#Cc1ccc(N2CCN(C(=O)c3cccc(COc4cccc5c(=O)[nH]ncc45)c3)CC2)nc1 [Compound 40]	100 to 1000
N#Cc1ccc(N2CCN(C(=O)c3ccc(COc4cccc5c(=O)[nH]ncc45)cc3)CC2)nc1 [Compound 41]	1000 to 10000
N#Cc1ccc(N2CCN(C(=O)c3cccc(OCCc4cccc5c(=O)[nH]ncc45)c3)CC2)nc1 [Compound 42]	≤ 100
CN(CCOCC(=O)N1CCN(c2ncc(C(F)(F)F)cn2)CC1)c1cccc2c(=O)[nH]ncc12 [Compound 43]	100 to 1000
N#Cc1ccc(N2CCN(C(=O)CCOCCN3CCCc4c3cn[nH]c4=O)CC2)nc1 [Compound 44]	≤ 100

The remaining lines, values ahead:

IC50 [nM]	SMILES
≤ 100	CC(COCC(=O)NC1CCN(c2ncc(C(F)(F)F)cn2)CC1)n1nc(C(F)(F)F)c2c(=O)[nH]ncc21 (single isomer, unassigned) [Compound 479, 2-(2-(4-oxo-3-(trifluoromethyl)-4,5-dihydro-1H-pyrazolo[3,4-d]pyridazin-1-yl)propoxy)-N-(1-(5-(trifluoromethyl)pyrimidin-2-yl)piperidin-4-yl) acetamide]
≤ 100	CC(COCC(=O)NC1CCN(c2ncc(C(F)(F)F)cn2)CC1)n1nc(C(F)(F)F)c2c(=O)[nH]ncc21 (single isomer, unassigned) [Compound 480, 2-(2-(4-oxo-3-(trifluoromethyl)-4,5-dihydro-1H-pyrazolo[3,4-d]pyridazin-1-yl)propoxy)-N-(1-(5-(trifluoromethyl)pyrimidin-2-yl)piperidin-4-yl) acetamide]
≤ 100	CC(COCCC(=O)N1CCN(c2ncc(C(C)(F)F)cn2)CC1)n1cc(C(F)(F)F)c2c(=O)[nH]ncc21 (single isomer, unassigned) [Compound 482]
≤ 100	CC(COCCC(=O)N1CCN(c2ccc(C(C)(F)F)cn2)CC1)n1cc(C(F)(F)F)c2c(=O)[nH]ncc21 (single isomer, unassigned) [Compound 484]
≤ 100	CC(COCCC(=O)N1CCN(c2ncc(C(C)(F)F)cn2)CC1)n1nc(C(F)(F)F)c2c(=O)[nH]ncc21 (single isomer, unassigned) [Compound 485]
≤ 100	CC(COCCC(=O)N1CCN(c2ncc(C(C)(F)F)cn2)CC1)n1nc(C(F)(F)F)c2c(=O)[nH]ncc21 (single isomer, unassigned) [Compound 486]
≤ 100	CC(COCCC(=O)N1CCN(c2ncc(C#N)cn2)CC1)n1nc(C(F)F)c2c(=O)[nH]ncc21 (single isomer, unassigned) [Compound 490]
≤ 100	CC(COCCC(=O)N1CCN(c2ncc(C#N)cn2)CC1)n1nc(C(F)F)c2c(=O)[nH]ncc21 (single isomer, unassigned) [Compound 491]
≤ 100	CC(CCOCC(=O)N1CCN(c2ccc(C#N)cn2)CC1)n1cc(C(F)(F)F)c2c(=O)[nH]ncc21 (single isomer, unassigned) [Compound 494]
100 to 1000	CC(CCOCC(=O)N1CCN(c2ccc(C#N)cn2)CC1)n1cc(C(F)(F)F)c2c(=O)[nH]ncc21 (single isomer, unassigned) [Compound 495]
≤ 100	CC(CCOCC(=O)N1CCN(c2ncc(C#N)cn2)CC1)n1nc(C(F)(F)F)c2c(=O)[nH]ncc21 (single isomer, unassigned) [Compound 496]
≤ 100	CC(CCOCC(=O)N1CCN(c2ncc(C#N)cn2)CC1)n1nc(C(F)(F)F)c2c(=O)[nH]ncc21 (single isomer, unassigned) [Compound 497]
≤ 100	CC(COCCC(=O)N1CCN(c2ncc(C(C)(C)C)cn2)CC1)n1cc(C(F)(F)F)c2c(=O)[nH]ncc21 (single isomer, unassigned) [Compound 498]
≤ 100	CC(COCCC(=O)N1CCN(c2ncc(C(C)(C)C)cn2)CC1)n1cc(C(F)(F)F)c2c(=O)[nH]ncc21 (single isomer, unassigned) [Compound 499]
≤ 100	CC(COCCC(=O)N1CCN(c2ncc(C(C)(C)C)cn2)CC1)n1nc(C(F)(F)F)c2c(=O)[nH]ncc21 (single isomer, unassigned) [Compound 500]
≤ 100	CC(COCCC(=O)N1CCN(c2ncc(C(C)(C)C)cn2)CC1)n1nc(C(F)(F)F)c2c(=O)[nH]ncc21 (single isomer, unassigned) [Compound 501]
≤ 100	O=C(CCOCCc1cccc2c(=O)[nH]c(=O)[nH]c12)N1CCN(c2ncc(C(F)(F)F)cn2)CC1 [Compound 45]
100 to 1000	N#Cc1ccc(N2CCN(C(=O)c3cccc(Cc4cccc5c4NCNC5=O)c3)CC2)nc1 [Compound 46]
1000 to 10000	O=C1NCNc2c(OCCOCC(=O)N3CCN(c4ncc(C(F)(F)F)cn4)CC3)cccc21 [Compound 47]
